Data taken from patent US7868013B2, “Cycloalkyl substituted pyrimidinediamine compounds and their uses” (Rigel Pharmaceuticals, Inc., priority 2004, dated 2011).
Structures can show the parent of a compound that is named as a salt. Where two headings read alike, the source gives them in different places.

Columns and labels:
A549 (lung carcinoma) = experiment: In vitro antiproliferation assay, A549 cells (TABLE 1 6 point assay; TABLE 2); assay type: cell-based
Experimental: (§1) Certain compounds were tested against other cell types for their ability to inhibit proliferation in standard antiproliferation assays.

[1] = system: H1299 (non-small cell lung carcinoma); experiment: In vitro antiproliferation assay, H1299 cells (TABLE 1 6 point assay; TABLE 2); assay type: cell-based
Experimental: as §1

[2] = Homo sapiens, A549, 6 point assay, A549 cells, read-out: IC50, A549 cells
[3] = Homo sapiens, NCI-H1299, 6 point assay, H1299 cells, read-out: IC50, H1299 cells
[4] = Homo sapiens, A549, A549 cells, 6 point assay, read-out: A549, 6pt (IC50, inhibition of proliferation)
[5] = Homo sapiens, NCI-H1299, H1299 cells, 6 point assay, read-out: H1299, 6pt (IC50, inhibition of proliferation)
[6] = 6 point assay, A549 cells, read-out: IC50, A549 cells

Structure (SMILES) | IC50 (A549 (lung carcinoma); [2]) | IC50 [1, 3] | IC50 (A549 (lung carcinoma); [4]) | IC50 [1, 5] | further results
CCOC(=O)[C@@H]1CCC[C@H]1Nc1nc(Nc2ccc(N3CCN(C)CC3)c(C)c2)ncc1F [compound 210, (1R,2R)-N4-(2-Ethoxycarbonylcyclopent-1-yl)-5-fluoro-N2-{3-methyl-4-(4-methylpiperazino)phenyl]-2,4-pyrimidinediamine] | 1000 to 10000 nM | 1000 to 10000 nM |  |  | 
Cc1cc(Nc2ncc(F)c(NC3C4C=CC(C4)C3C(=O)OC3C[C@@H](C)CC[C@@H]3C(C)C)n2)ccc1N1CCN(C)CC1 (mixture of isomers) [compound 135, Racemic (2-exo,3-exo)-5-Fluoro-N4-[3-(1R,2S,5R)-(−)-menthyloxycarbonylbicyclo[2.2.1]hept-5-en-2-yl]-N2-[3-methyl-4-(4-methylpiperazin-1-yl)phenyl]-2,4-pyrimidinediamine] |  |  | 1000 to 10000 nM | 1000 to 10000 nM | 
Cc1cc(Nc2ncc(F)c(N[C@H]3[C@@H](C(N)=O)[C@@H]4C=C[C@H]3C4)n2)ccc1N1CCN(C)CC1 [compound 122, (1R,2R,3S,4S)-N4-(3-Aminocarbonylbicyclo[2.2.1]hept-5-en-2-yl)-5-fluoro-N2-[3-methyl-4-(4-methylpiperazin-1-yl)phenyl]-2,4-pyrimidinediamine Tartaric Acid Salt] |  |  | ≤ 100 nM | ≤ 100 nM | 
Cc1cc(Nc2ncc(F)c(N[C@H]3CCC[C@H]3C(=O)NC3CC3)n2)ccc1N1CCN(C)CC1 (racemic) [compound 159, Racemic-cis-N4-[2-(N-cyclpropyl)aminocarbonylcyclopent-1-yl]-5-fluoro-N2-[4-(4-methylpiperazin-1-yl)-3-methylphenyl]-2,4-pyrimidinediamine] |  |  | 100 to 1000 nM | 100 to 1000 nM | 
Cc1cc(Nc2ncc(F)c(N[C@@H]3[C@H](C(=O)NC4CCC4)[C@H]4C=C[C@@H]3C4)n2)ccc1N1CCN(C)CC1 [compound 193, (1S,2S,3R,4R)-N4-[3-(N-Cyclobutyl)aminocarbonylbicyclo[2.2.1]hept-5-en-2-yl]-5-fluoro-N2-[3-methyl-4-(4-methylpiperazin-1-yl)phenyl]-2,4-pyrimidinediamine] | > 10000 nM | 1000 to 10000 nM |  |  | 
CS(=O)(=O)N1CCc2cc(Nc3ncc(F)c(NC4C5CCC(C5)C4C(=O)NC4CC4)n3)ccc21 (racemic) [compound 180, Racemic-(2-exo,3-exo)-N4-[3-cyclopropylaminocarbonylbicyclo[2.2.1]hept-2-yl)-5-fluoro-N2-[1-methylsulfonyl-2,3-dihydro-indol-5-yl]-2,4-pyrimidinediamine] |  |  | ≤ 100 nM | ≤ 100 nM | 
Cc1cc(Nc2ncc(F)c(NC3C4C=CC(C4)C3C(N)=O)n2)ccc1N1CC(C)OC(C)C1 (racemic) [Compound 284, Racemic-(2-exo,3-exo)-N4-(3-aminocarbonylbicyclo[2.2.1]hept-5-en-2-yl)-N2-[4-(2,6-dimethylmorpholino)-3-methylphenyl]-5-fluoro-2,4-pyrimidinediamine] | ≤ 100 nM | ≤ 100 nM |  |  | 
CCNC(=O)C1C2C=CC(C2)C1Nc1nc(Nc2ccc3c(c2)OCCN3CCN(C)C)ncc1F (racemic) [compound 184, Racemic-(2-exo,3-exo)-N4-[3-N-ethylminocarbonylbicyclo[2.2.1]hept-5-en-2-yl)-5-fluoro-N2-{1-[2-(dimethylamino)ethyl]-3,4-dihydro-4H-benz[1,4]oxazin-6-yl}-2,4-pyrimidinediamine] |  |  | ≤ 100 nM | ≤ 100 nM | 
Cc1cc(Nc2ncc(F)c(N[C@H]3[C@@H](C(N)=O)[C@@H]4C=C[C@H]3C4)n2)ccc1OC1CCCN(C)C1 (mixture of isomers) [compound 147, (1R,2R,3S,4S)-N4-(3-Aminocarbonylbicyclo[2.2.1]hept-5-en-2-yl)-5-fluoro-N2-[3-methyl-4-(1-methylpiperidin-3(±)-yloxy)phenyl]-2,4-pyrimidinediamine] |  |  |  |  | IC50 (A549 (lung carcinoma); A549 cells, 6 point assay, read-out: A549, 6pt (IC50, inhibition of proliferation)): ≤ 100 nM; IC50 ([1]; H1299 cells, 6 point assay, read-out: H1299, 6pt (IC50, inhibition of proliferation)): ≤ 100 nM
COc1cc(Nc2ncc(F)c(NC3C4C=CC(C4)C3C(N)=O)n2)ccc1S(N)(=O)=O (racemic) [compound 133, Racemic-(2-exo,3-exo)-N4-(3-aminocarbonylbicyclo[2.2.1]hept-5-en-2-yl)-N2-(4-aminosulfonyl-3-methoxyphenyl)-5-fluoro-2,4-pyrimidinediamine] |  |  | 1000 to 10000 nM | 1000 to 10000 nM | 
CCS(=O)(=O)N1CCN(c2ccc(Nc3ncc(F)c(N[C@H]4[C@@H](C(N)=O)[C@@H]5C=C[C@H]4C5)n3)cc2C)CC1 [compound 269, (1R,2R,3S,4S)-N4-(3-Aminocarbonylbicyclo[2.2.1]hept-5-en-2-yl)-N2-[3-methyl-4-(4-ethylsulfonylpiperazin-1-yl)phenyl]-5-fluoro-2,4-pyrimidinediamine] |  |  |  |  | IC50 (A549 (lung carcinoma); [6]): ≤ 100 nM; IC50 ([1]; 6 point assay, H1299 cells, read-out: IC50, H1299 cells): ≤ 100 nM
Cc1cc(Nc2ncc(F)c(N[C@H]3CCC[C@@H]3C(=O)O)n2)ccc1N1CCN(C)CC1 [compound 209, (1S,2S)-5-fluoro-N4-(2-hydroxycarbonylcyclopent-1-yl)-N2-[3-methyl-4-(4-methylpiperazino)phenyl]-2,4-pyrimidinediamine] | > 10000 nM | > 10000 nM |  |  | 
CN1CCC(c2cccc(Nc3ncc(F)c(N[C@H]4[C@@H](C(N)=O)[C@@H]5C=C[C@H]4C5)n3)c2)CC1 [compound 145, (1R,2R,3S,4S)-N4-(3-Aminocarbonylbicyclo[2.2.1]hept-5-en-2-yl)-5-fluoro-N2-[3-(1-methylpiperidin-4-yl)phenyl]-2,4-pyrimidinediamine Mono- Hydrochloric Acid Salt] |  |  | ≤ 100 nM | ≤ 100 nM | 
CN1CCC(c2ccc(Nc3ncc(F)c(N[C@H]4[C@@H](C(N)=O)[C@@H]5C=C[C@H]4C5)n3)cc2)CC1 [compound 137, (1R,2R,3S,4S)-N4-(3-aminocarbonylbicyclo[2.2.1]hept-5-en-2-yl)-5-fluoro-N2-[4-(1-methylpiperidin-4-yl)phenyl]-2,4-pyrimidinediamine] |  |  | ≤ 100 nM | ≤ 100 nM | 
Cc1cc(Nc2ncc(F)c(N[C@@H]3[C@H](C(=O)NC(C)c4ccccc4)[C@H]4C=C[C@@H]3C4)n2)ccc1N1CCN(C)CC1 (stereo partly drawn) [compound 110, (1S,2S,3R,4R)-N4-5-Fluoro-N4-(3-(R)-alpha-methylbenzylaminocarbonylbicyclo[2.2.1]hept-5-en-2-yl)-N2-[3-methyl-4-(4-methylpiperazin-1-yl)phenyl]-2,4-pyrimidinediamine] |  |  | 100 to 1000 nM | 100 to 1000 nM | 

Second part, led by results:

IC50 (A549 (lung carcinoma); [2]) | IC50 [1, 3] | IC50 (A549 (lung carcinoma); [4]) | IC50 [1, 5] | Structure (SMILES) | further results
1000 to 10000 nM | > 10000 nM |  |  | Cc1cc(Nc2ncc(F)c(NC3(C(N)=O)CC=CC3)n2)ccc1N1CCN(C)CC1 [compound 238, N4-(1-Aminocarbonylcyclopent-3-ene-1-yl)-5-fluoro-N2-[3-methyl-4-(4-methylpiperazin-1-yl)phenyl]-2,4-pyrimidinediamine] | 
1000 to 10000 nM | 1000 to 10000 nM |  |  | COC(=O)[C@H]1CC[C@@H](Nc2nc(Nc3ccc(N4CCN(C)CC4)c(C)c3)ncc2F)C1 [compound 214, (1R,3S)-N4-(3-Methoxycarbonylcyclopent-1-yl)-5-fluoro-N2-[3-methyl-4-(4-methylpiperazin-1-yl)phenyl]-2,4-pyrimidinediamine] | 
≤ 100 nM | ≤ 100 nM |  |  | CN1CCN(c2ccc(Nc3ncc(F)c(NC4C5C=CC(C5)C4C(N)=O)n3)cc2CO)CC1 (racemic) [compound 236, Racemic-(2-exo,3-exo)-N4-(3-aminocarbonylbicyclo[2.2.1]hept-5-en-2-yl)-5-fluoro-N2-[3-hydroxymethyl-4-(4-methylpiperazin-1-yl)phenyl]-2,4-pyrimidinediamine] | 
100 to 1000 nM | 100 to 1000 nM |  |  | Cc1cc(Nc2ncc(F)c(N[C@H]3CCC[C@H]3C(N)=O)n2)ccc1N1CC2CC1CN2C (mixture of isomers) [compound 282, Racemic-cis-N4-(2-aminocarbonylcyclopent-1-yl)-5-fluoro-N2-[3-methyl-4-(5-methyl-(1S,4S)-2,5-diazabicyclo[2.2.1]heptan-2-yl)phenyl]-2,4-pyrimidinediamine] | 
 | 1000 to 10000 nM |  |  | Cc1cc(Nc2ncc(F)c(N[C@H]3CCCC[C@H]3C(N)=O)n2)ccc1N1CCN(C)CC1 (racemic) [compound 223, Racemic-cis-N4-(2-aminocarbonylcyclohex-1-yl)-5-fluoro-N2-[3-methyl-4-(4-methylpiperazin-1-yl)phenyl]-2,4-pyrimidinediamine] | IC50 (A549 (lung carcinoma); [6]): 100 to 1000 nM
100 to 1000 nM | 100 to 1000 nM |  |  | Cc1cc(Nc2ncc(F)c(N[C@@H]3[C@H]4CC[C@H](C4)[C@@H]3C(=O)NC3CC3)n2)ccc1N1CCN(C)CC1 [compound 253, (1S,2R,3S,4R)-N4-(3-N-Cyclopropylaminocarbonylbicyclo[2.2.1]hept-2-yl)-5-fluoro-N2-[3-methyl-4-(4-methylpiperazin-1-yl)phenyl]-2,4-pyrimidinediamine] | 
> 10000 nM | > 10000 nM |  |  | Cc1cc(Nc2ncc(F)c(N[C@H]3CC[C@@H](C(=O)O)C3)n2)ccc1N1CCN(C)CC1 [compound 219, (1S,3R)-N4-(3-Carboxycyclopent-1-yl)-fluoro-N2-[3-methyl-4-(4-methylpiparazin-1-yl)phenyl]-2,4-pyrimidinediamine] | 
1000 to 10000 nM | 1000 to 10000 nM |  |  | CN1CCN(C(=O)c2ccc(Nc3ncc(F)c(N[C@H]4CCC[C@H]4C(N)=O)n3)cc2)CC1 (racemic) [compound 281, Racemic-cis-N4-(2-aminocarbonylcyclopent-1-yl)-5-fluoro-N2-[4-(4-methylpiperaino-1-yl-carbonyl)phenyl]-2,4-pyrimidinediamine] | 
